In patent publication US8952024B2, “Herbicidal pyrimidone derivatives” (E I du Pont de Nemours and Company, priority 2009, dated 2015):

Columns and labels:
Type in all cases: in vivo
[1] = system: rice (Oryza sativa); test: Test B flooded paddy test; details: for Plant response rating, Flood, Rice: 250 g ai/ha, flooded paddy test, visual rating on 0 to 100 scale (0 no effect, 100 complete control) after 13 to 15 days; for Plant response rating, Rice: Flood (flooded paddy test), 13 to 15 days; for Rice plant response rating: Flood, 31 g ai/ha, scale 0 to 100 (0 no effect, 100 complete control)
Summary of the method: (§1)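 2-leaf seedlings; pots flooded 3 cm over soil at treatment; cpd dosed into floodwater, depth kept constant. Greenhouse 13–15 d. Visual rating vs untreated controls, 0 = no effect, 100 = complete control.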

[2] = system: umbrella sedge (Cyperus difformis); test: Test B flooded paddy test; details: for Plant response rating, Flood, Sedge, Umbrella: 250 g ai/ha, flooded paddy test, visual rating on 0 to 100 scale (0 no effect, 100 complete control) after 13 to 15 days; for Plant response rating, Sedge, Umbrella: Flood (flooded paddy test), 13 to 15 days; for Sedge, Umbrella plant response rating: Flood, 31 g ai/ha, scale 0 to 100 (0 no effect, 100 complete control)
Summary of the method: as §1

[3] = system: ducksalad (Heteranthera limosa); test: Test B flooded paddy test; details: for Plant response rating, Flood, Ducksalad: 250 g ai/ha, flooded paddy test, visual rating on 0 to 100 scale (0 no effect, 100 complete control) after 13 to 15 days; for Plant response rating, Ducksalad: Flood (flooded paddy test), 13 to 15 days; for Ducksalad plant response rating: Flood, 31 g ai/ha, scale 0 to 100 (0 no effect, 100 complete control)
Summary of the method: as §1

[4] = system: barnyardgrass (Echinochloa crus-galli); test: Test B flooded paddy test; details: for Plant response rating, Flood, Barnyardgrass: 250 g ai/ha, flooded paddy test, visual rating on 0 to 100 scale (0 no effect, 100 complete control) after 13 to 15 days; for Plant response rating, Barnyardgrass: Flood (flooded paddy test), 13 to 15 days; for Barnyardgrass plant response rating: Flood, 31 g ai/ha, scale 0 to 100 (0 no effect, 100 complete control)
Summary of the method: as §1

[5] = system: pigweed (Amaranthus retroflexus); test: Test A pre-/postemergence plant response
Summary of the method: (§2)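 Formulated test chemicals (non-phytotoxic solvent, surfactant) were sprayed onto soil right after planting and simultaneously onto young plants at one to two leaves, 2 to 10 cm tall. Plants stayed in the greenhouse about ten days; injury was then visually scored against untreated controls, from 0 (no effect) to 100 (complete control).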

[6] = system: velvetleaf (Abutilon theophrasti); test: Test A pre-/postemergence plant response
Summary of the method: as §2

[7] = system: giant foxtail (Setaria faberii); test: Test A pre-/postemergence plant response
Summary of the method: as §2

[8] = system: wheat (Triticum aestivum); test: Test A pre-/postemergence plant response
Summary of the method: as §2

[9] = system: corn (Zea mays); test: Test A pre-/postemergence plant response
Summary of the method: as §2

[10] = system: barnyardgrass (Echinochloa crus-galli); test: Test A pre-/postemergence plant response
Summary of the method: as §2

[11] = system: large crabgrass (Digitaria sanguinalis); test: Test A pre-/postemergence plant response
Summary of the method: as §2

[12] = system: morningglory (Ipomoea spp.); test: Test A pre-/postemergence plant response
Summary of the method: as §2

[13] = 62 g ai/ha, scale of 0 to 100 where 0 is no effect and 100 is complete control
[14] = 125 g ai/ha, scale 0 to 100, 0 is no effect, 100 is complete control
[15] = Postemergence, 125 g ai/ha, 0 to 100 scale where 0 is no effect and 100 is complete control
[16] = Postemergence, 500 g ai/ha, 0 to 100 scale, 0 = no effect, 100 = complete control, approx. ten days
[17] = Preemergence, 125 g ai/ha, 0 to 100 scale, 0 = no effect, 100 = complete control
[18] = Preemergence, 500 g ai/ha, visual injury, 0 to 100 scale (0 no effect, 100 complete control), approx. ten days
[19] = Preemergence, 500 g ai/ha, 0 to 100 scale, 0 = no effect, 100 = complete control
[20] = Postemergence, 500 g ai/ha, visual injury, 0 to 100 scale (0 no effect, 100 complete control), approx. ten days

CCCn1c(C2CC2)ncc(C(=O)C2=C(O)CCCC2=O)c1=O [Compound 153]
95: Plant response rating, Flood, Sedge, Umbrella [2]
100: Plant response rating, Flood, Ducksalad [3] | Plant response rating, Ducksalad [3, 14] | Plant response rating, Pigweed [5, 15] | Plant response rating, Pigweed [5, 16] | Plant response rating, Pigweed [5, 17] | Plant response rating, Pigweed [5, 18] | Plant response rating, Velvetleaf [6, 15] | Plant response rating, Velvetleaf [6, 16] | Plant response rating, Velvetleaf [6, 17] | Plant response rating, Velvetleaf [6, 19] | Plant response rating, Crabgrass, Large [11, 18]
45: Plant response rating, Flood, Barnyardgrass [4]
60: Plant response rating, Morningglory [12, 16]
35: Plant response rating, Rice [1, 13] | Rice plant response rating [1] | Plant response rating, Barnyardgrass [4, 14]
55: Plant response rating, Rice [1, 14]
70: Plant response rating, Foxtail, Giant [7, 15] | Plant response rating, Foxtail, Giant [7, 18] | Plant response rating, Morningglory [12, 18]
20: Plant response rating, Foxtail, Giant [7, 17] | Plant response rating, Wheat [8, 19] | Plant response rating, Corn [9, 16] | Plant response rating, Corn [9, 17] | Plant response rating, Corn [9, 18] | Plant response rating, Morningglory [12, 17]
80: Plant response rating, Sedge, Umbrella [2, 14] | Plant response rating, Foxtail, Giant [7, 16] | Plant response rating, Barnyardgrass [10, 15] | Plant response rating, Barnyardgrass [10, 18] | Plant response rating, Crabgrass, Large [11, 17]
65: Plant response rating, Flood, Rice [1] | Plant response rating, Ducksalad [3, 13]
0: Plant response rating, Sedge, Umbrella [2, 13] | Sedge, Umbrella plant response rating [2] | Ducksalad plant response rating [3] | Plant response rating, Barnyardgrass [4, 13] | Barnyardgrass plant response rating [4] | Plant response rating, Wheat [8, 15] | Plant response rating, Wheat [8, 17] | Plant response rating, Corn [9, 15]
40: Plant response rating, Barnyardgrass [10, 17]
90: Plant response rating, Barnyardgrass [10, 16] | Plant response rating, Crabgrass, Large [11, 15] | Plant response rating, Crabgrass, Large [11, 16]
50: Plant response rating, Morningglory [12, 15]
10: Plant response rating, Wheat [8, 16]

Cc1ccc(F)cc1-n1c(-c2cccc(Br)c2)ncc(C(=O)C2=C(O)CCCC2=O)c1=O [Compound 154]
75: Plant response rating, Flood, Rice [1]
60: Plant response rating, Rice [1, 14] | Plant response rating, Pigweed [5, 15] | Plant response rating, Foxtail, Giant [7, 15]
10: Plant response rating, Foxtail, Giant [7, 17] | Plant response rating, Corn [9, 16] | Plant response rating, Crabgrass, Large [11, 17]
70: Plant response rating, Ducksalad [3, 14] | Plant response rating, Crabgrass, Large [11, 15] | Plant response rating, Morningglory [12, 16]
100: Plant response rating, Flood, Sedge, Umbrella [2] | Plant response rating, Flood, Ducksalad [3] | Plant response rating, Pigweed [5, 16] | Plant response rating, Velvetleaf [6, 15] | Plant response rating, Velvetleaf [6, 16] | Plant response rating, Crabgrass, Large [11, 16]
80: Plant response rating, Pigweed [5, 18] | Plant response rating, Velvetleaf [6, 19]
95: Plant response rating, Sedge, Umbrella [2, 13] | Plant response rating, Sedge, Umbrella [2, 14]
30: Plant response rating, Pigweed [5, 17] | Plant response rating, Foxtail, Giant [7, 18] | Plant response rating, Morningglory [12, 15]
50: Plant response rating, Ducksalad [3, 13] | Plant response rating, Crabgrass, Large [11, 18]
40: Plant response rating, Flood, Barnyardgrass [4] | Plant response rating, Velvetleaf [6, 17] | Plant response rating, Barnyardgrass [10, 18]
0: Plant response rating, Rice [1, 13] | Rice plant response rating [1] | Sedge, Umbrella plant response rating [2] | Ducksalad plant response rating [3] | Plant response rating, Barnyardgrass [4, 13] | Plant response rating, Barnyardgrass [4, 14] | Barnyardgrass plant response rating [4] | Plant response rating, Wheat [8, 15] | Plant response rating, Wheat [8, 16] | Plant response rating, Wheat [8, 17] | Plant response rating, Wheat [8, 19] | Plant response rating, Corn [9, 15] | Plant response rating, Corn [9, 17] | Plant response rating, Corn [9, 18] | Plant response rating, Barnyardgrass [10, 17] | Plant response rating, Morningglory [12, 17] | Plant response rating, Morningglory [12, 18]
90: Plant response rating, Foxtail, Giant [7, 16] | Plant response rating, Barnyardgrass [10, 15] | Plant response rating, Barnyardgrass [10, 16]

O=C1CCCC(O)=C1C(=O)c1cnc(-c2cc(F)cc(F)c2)n(CC2CCCCC2)c1=O [Compound 163]
60: Plant response rating, Ducksalad [3, 14] | Plant response rating, Pigweed [5, 19] | Plant response rating, Crabgrass, Large [11, 15]
10: Rice plant response rating [1] | Plant response rating, Velvetleaf [6, 17] | Plant response rating, Foxtail, Giant [7, 19] | Plant response rating, Crabgrass, Large [11, 19] | Plant response rating, Morningglory [12, 15]
30: Ducksalad plant response rating [3]
0: Plant response rating, Barnyardgrass [4, 14] | Barnyardgrass plant response rating [4] | Plant response rating, Pigweed [5, 17] | Plant response rating, Foxtail, Giant [7, 17] | Plant response rating, Wheat [8, 15] | Wheat plant response rating [8, 20] | Plant response rating, Wheat [8, 17] | Plant response rating, Wheat [8, 19] | Plant response rating, Corn [9, 15] | Plant response rating, Corn [9, 17] | Plant response rating, Corn [9, 19] | Plant response rating, Barnyardgrass [10, 17] | Plant response rating, Crabgrass, Large [11, 17] | Plant response rating, Morningglory [12, 17] | Plant response rating, Morningglory [12, 19]
80: Plant response rating, Pigweed [5, 15]
50: Plant response rating, Velvetleaf [6, 19] | Foxtail, Giant plant response rating [7, 20] | Plant response rating, Barnyardgrass [10, 15]
70: Plant response rating, Sedge, Umbrella [2, 14] | Sedge, Umbrella plant response rating [2]
20: Plant response rating, Rice [1, 14] | Plant response rating, Foxtail, Giant [7, 15] | Corn plant response rating [9, 20] | Plant response rating, Barnyardgrass [10, 19]
100: Pigweed plant response rating [5, 20] | Plant response rating, Velvetleaf [6, 15] | Velvetleaf plant response rating [6, 20] | Barnyardgrass plant response rating [10, 20] | Morningglory plant response rating [12, 20]
90: Crabgrass, Large plant response rating [11, 20]
